Experimental findings from patent publication US10988459B2 (priority 2015, dated 2021) are described below.

SMILES strings stand for the structures. Read-outs that look alike come from different tables or passages of the source.

The assay deals with human RIP1 kinase domain (2-375) (Homo sapiens (Human), UniProt Q13546). Briefly: biochemical. It is filed as biochemical. In a few lines:
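50 nM purified kinase domain from baculovirus-infected insect cells, incubated 2 h with compound in 50 mM Hepes pH 7.5, 30 mM MgCl2, 1 mM DTT, 50 uM ATP, 0.002% Brij-35, 0.5% DMSO. ADP formation read by Transcreener FP at 633 nm excitation. Ki^app fitted with the Morrison tight-binding equation.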

Where [1] appears, read: tight-binding apparent inhibition constant, human RIP1 kinase domain (2-375) 50 nM, 50 uM ATP, 2 hours, read-out: Ki.
[2] abbreviates: human RIP1 kinase domain (2-375), 50 uM ATP, 2 hours incubation, Transcreener ADP assay, read-out: RIP1 Ki.
The mark [3] stands for this setting: Table 5, apparent Ki (Morrison tight-binding fit), 50 nM RIP1 kinase domain, 50 uM ATP, 2 hours incubation, read-out: Ki.

Chain of human RIP1 kinase domain (2-375) (Q13546 2-375): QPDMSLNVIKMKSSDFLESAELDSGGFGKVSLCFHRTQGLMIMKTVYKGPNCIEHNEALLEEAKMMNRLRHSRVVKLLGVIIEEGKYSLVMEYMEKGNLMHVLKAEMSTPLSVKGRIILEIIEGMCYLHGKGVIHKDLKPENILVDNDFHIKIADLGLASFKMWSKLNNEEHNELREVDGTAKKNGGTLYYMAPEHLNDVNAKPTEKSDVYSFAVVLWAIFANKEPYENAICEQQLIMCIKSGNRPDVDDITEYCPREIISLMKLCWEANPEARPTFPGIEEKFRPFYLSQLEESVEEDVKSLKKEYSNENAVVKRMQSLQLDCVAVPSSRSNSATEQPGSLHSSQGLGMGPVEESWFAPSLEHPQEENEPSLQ

With `CN1C(=O)[C@@H](NC(=O)c2n[nH]c3c2CC(c2ccccc2)CC3)COc2ccccc21` (stereo partly drawn) [Example 24, N—((S)-5-methyl-4-oxo-2,3,4,5-tetrahydrobenzo[b][1,4]oxazepin-3-yl)-5-phenyl-4,5,6,7-tetrahydro-1H-indazole-3-carboxamide], the Ki (Table 1, apparent Ki (Morrison tight-binding fit), 50 nM RIP1 kinase domain, 50 uM ATP, 2 hours incubation, read-out: RIP1 Ki) came to 27.9 nM.
Consider `Cc1cccnc1Cn1cnc(C(=O)N[C@H]2CCn3nc(C4CC4)cc3N(C)C2=O)n1` [Example 648], for which the Ki under setting [1] is 280 nM.
For `CN1C(=O)C(NC(=O)c2ncn(Cc3ccccc3)n2)CCn2nc3c(c21)CS(=O)(=O)C3` (stereo not shown) [Example 140, 1-benzyl-N-(1-methyl-9,9-dioxido-2-oxo-1,2,3,4,5,10-hexahydro-8H-thieno[3′,4′:3,4]pyrazolo[1,5-a][1,3]diazepin-3-yl)-1H-1,2,4-triazole-3-carboxamide], the Ki under setting [2] is 316 nM.
Regarding `CCC[C@@H]1CCCc2nc(C(=O)N[C@H]3COc4cc(F)cc(F)c4NC3=O)nn21` (single isomer, unassigned) [Example 445], the Ki under setting [1] worked out at 3.47 nM.
`COCCNCc1cc2n(n1)CCC(NC(=O)c1ncn(Cc3ccccc3)n1)C(=O)N2C` (single isomer, unassigned) [Example 784]: under setting [3], the Ki is 225 nM.
As for `CN1C(=O)C(NC(=O)c2ncn(Cc3ccccc3)n2)CCn2ccnc21` (stereo not shown) [Example 195, 1-benzyl-N-(9-methyl-8-oxo-6,7,8,9-tetrahydro-5H-imidazo[1,2-a][1,3]diazepin-7-yl)-1H-1,2,4-triazole-3-carboxamide], under setting [2], the Ki came out at 123 nM.
In the case of `CN1C(=O)[C@@H](NC(=O)c2nnc3ccc(C(F)(F)C(F)(F)F)nn23)COc2ccccc21` [Example 114, (S)—N-(5-methyl-4-oxo-2,3,4,5-tetrahydrobenzo[b][1,4]oxazepin-3-yl)-6-(perfluoroethyl)-[1,2,4]triazolo[4,3-b]pyridazine-3-carboxamide], the Ki (read-out: RIP1 Ki) worked out at 68.3 nM.
As to `Cc1cc2n(n1)CC[C@H](NC(=O)c1ncn(Cc3ccccc3C)n1)C(=O)N2C` [Example 591, 1-(o-tolylmethyl)-N-(6S)-2,4-dimethyl-5-oxo-7,8-dihydro-6H-pyrazolo[1,5-a][1,3]diazepin-6-yl-1,2,4-triazole-3-carboxamide], the Ki under setting [1] was found to be 17 nM.
For the compound `CN1C(=O)[C@@H](NC(=O)c2ccn(Cc3ccc(F)c(F)c3)n2)COc2c1cnn2C` [Example 182, (S)-1-(3,4-difluorobenzyl)-N-(1,4-dimethyl-5-oxo-4,5,6,7-tetrahydro-1H-pyrazolo[3,4-b][1,4]oxazepin-6-yl)-1H-pyrazole-3-carboxamide], the Ki under setting [2] amounted to 2300 nM.
`CN1C(=O)[C@@H](NC(=O)c2ncn(CC3CCC(F)(F)C3)n2)CCn2nc(C3CC3)cc21` (stereo partly shown) [Example 594]: under setting [1], the Ki worked out at 420 nM.
Consider `CN1C(=O)[C@@H](NC(=O)c2nc3n(n2)[C@H](c2ccccc2)CCC3)COc2ccccc21` [Example 735, (S)—N—((S)-5-methyl-4-oxo-2,3,4,5-tetrahydrobenzo[b][1,4]oxazepin-3-yl)-5-phenyl-5,6,7,8-tetrahydro-[1,2,4]triazolo[1,5-a]pyridine-2-carboxamide], for which the Ki under setting [3] is 13 nM.
`CN1C(=O)[C@@H](NC(=O)c2nc3n(n2)CCOC3c2ccccc2)COc2ccccc21` (stereo partly drawn) [Example 515, 8-phenyl-N-[(3S)-5-methyl-4-oxo-2,3-dihydro-1,5-benzoxazepin-3-yl]-6,8-dihydro-5H-[1,2,4]triazolo[5,1-c][1,4]oxazine-2-carboxamide]: the Ki under setting [1] was found to be 29 nM.
In the case of `CN1C(=O)[C@@H](NC(=O)c2ncn(Cc3ccccc3)n2)CCn2nc(CN3CCOCC3)cc21` (single isomer, unassigned) [Example 720], under setting [3], the Ki was found to be 155 nM.
For `Cc1cc2n(n1)CC[C@H](NC(=O)c1nc3n(n1)CCC3c1ccccc1)C(=O)N2C` (stereo partly drawn) [Example 574, 7-phenyl-N-[(6S)-2,4-dimethyl-5-oxo-7,8-dihydro-6H-pyrazolo[1,5-a][1,3]diazepin-6-yl]-6,7-dihydro-5H-pyrrolo[1,2-b][1,2,4]triazole-2-carboxamide], the Ki under setting [1] worked out at 58 nM.
For `COCCOCCc1cc2n(n1)CC[C@H](NC(=O)c1ncn(Cc3ccccc3F)n1)C(=O)N2C` [Example 760, 1-[(2-fluorophenyl)methyl]-N-[(6S)-2-[2(2-methoxyethoxy)ethyl]-4-methyl-5-oxo-7,8-dihydro-6H-pyrazolo[1,5-a][1,3]diazepin-6-yl]-1,2,4-triazole-3-carboxamide], the Ki under setting [3] was found to be 77 nM.
As to `CCC1(C)Cc2c(C(=O)N[C@H]3COc4ccccc4N(C)C3=O)n[nH]c2CO1` (stereo partly drawn) [Example 194, 5-ethyl-5-methyl-N-((S)-5-methyl-4-oxo-2,3,4,5-tetrahydrobenzo[b][1,4]oxazepin-3-yl)-1,4,5,7-tetrahydropyrano[3,4-c]pyrazole-3-carboxamide], under setting [2], the Ki turned out to be 167 nM.
In the case of `Cc1cc2n(n1)CC[C@H](NC(=O)c1cc3c(cn1)COC31CCCOC1)C(=O)N2C` (stereo partly drawn) [Example 545, N-[(6S)-2,4-dimethyl-5-oxo-7,8-dihydro-6H-pyrazolo[1,5-a][1,3]diazepin-6-yl]spiro[3H-furo[3,4-c]pyridine-1,3′-tetrahydropyran]-6-carboxamide], the Ki under setting [1] was 2100 nM.
With `O=C(N[C@H]1CCc2cc(F)cc(F)c2NC1=O)c1nc2n(n1)CCO[C@H]2c1ccccc1` [Example 638, (8S)-8-phenyl-N-[(3S)-7,9-difluoro-2-oxo-1,3,4,5-tetrahydro-1-benzazepin-3-yl]-6,8-dihydro-5H-[1,2,4]triazolo[5,1-c][1,4]oxazine-2-carboxamide], under setting [1], the Ki amounted to 38 nM.
Still for that read-out and setting: the same measure for `Cc1cc2n(n1)CC[C@H](NC(=O)c1nc3n(n1)[C@@H](c1ccccc1F)CC3)C(=O)N2C` [Example 666, (5R)-5-(2-fluorophenyl)-N-[(6S)-2,4-dimethyl-5-oxo-7,8-dihydro-6H-pyrazolo[1,5-a][1,3]diazepin-6-yl]-6,7-dihydro-5H-pyrrolo[1,2-b][1,2,4]triazole-2-carboxamide]: 40 nM.
Still for that read-out and setting: the same measure for `CN1C(=O)[C@H](NC(=O)c2nnc(Cc3ccc(F)cc3)[nH]2)CCn2nc(C(F)(F)F)cc21` [Example 550]: 210 nM.
Turning to `CN1C(=O)C(NC(=O)c2nnc(Cc3ccccc3)[nH]2)CCn2nc3c(c21)CCCC3` (stereo not shown) [Example 133, 5-benzyl-N-(1-methyl-2-oxo-2,3,4,5,8,9,10,11-octahydro-1H-[1,3]diazepino[1,2-b]indazol-3-yl)-4H-1,2,4-triazole-3-carboxamide], the Ki under setting [2] stood at 127 nM.
Turning to `CCC[C@@H]1CCCc2nc(C(=O)N[C@H]3COc4cc(C)cc(F)c4NC3=O)nn21` (single isomer, unassigned) [Example 441], under setting [1], the Ki was 9.29 nM.
Regarding `CN1C(=O)[C@@H](NC(=O)c2ncn(Cc3ccccc3)n2)CCn2nc(CN3CCOCC3)cc21` (single isomer, unassigned) [Example 449], under setting [1], the Ki turned out to be 115 nM.
Turning to `Cc1cc(F)c2c(c1)OC[C@H](NC(=O)c1nc3n(n1)CCO[C@H]3c1ccccc1)C(=O)N2` [Example 642, (8S)-8-phenyl-N-[(3S)-6-fluoro-8-methyl-4-oxo-3,5-dihydro-2H-1,5-benzoxazepin-3-yl]-6,8-dihydro-5H-[1,2,4]triazolo[5,1-c][1,4]oxazine-2-carboxamide], the Ki under setting [1] is 12 nM.
For `CN1C(=O)[C@@H](NC(=O)c2nnn3ccc(C(F)(F)F)cc23)COc2ccccc21` [Example 191, (S)—N-(5-methyl-4-oxo-2,3,4,5-tetrahydrobenzo[b][1,4]oxazepin-3-yl)-5-(trifluoromethyl)-[1,2,3]triazolo[1,5-a]pyridine-3-carboxamide], the Ki under setting [2] amounted to 22 nM.
`O=C(N[C@H]1COc2cc(F)cc(F)c2NC1=O)c1nc2cccc(C3CCOCC3)n2n1` [Example 422, (S)—N-(6,8-difluoro-4-oxo-2,3,4,5-tetrahydrobenzo[b][1,4]oxazepin-3-yl)-5-(tetrahydro-2H-pyran-4-yl)-[1,2,4]triazolo[1,5-a]pyridine-2-carboxamide]: the Ki under setting [1] is 27.4 nM.
As to `CN1C(=O)C(NC(=O)c2ncn(Cc3ccccc3)n2)CCn2nc(C3CCC3)cc21` (stereo not shown) [Example 454, 1-Benzyl-N-(2-cyclobutyl-4-methyl-5-oxo-5,6,7,8-tetrahydro-4H-pyrazolo[1,5-a][13]diazepin-6-yl)-1H-1,2,4-triazole-3-carboxamide], under setting [1], the Ki is 46 nM.
As for `Cc1nc(C)n2c1N(C)C(=O)[C@H](NC(=O)c1ncn(Cc3c(F)cccc3F)n1)CC2` [Example 597, 1-[(2,6-difluorophenyl)methyl]-N-(3R)-1,7,9-trimethyl-2-oxo-4,5-dihydro-3H-imidazo[1,5-a][1,3]diazepin-3-yl-1,2,4-triazole-3-carboxamide], under setting [1], the Ki turned out to be 130 nM.
In the case of `CC[C@]1(C)OCc2cnc(C(=O)N[C@H]3COc4cc(F)cc(F)c4NC3=O)cc21` [Example 243, (S)—N—((S)-6,8-difluoro-4-oxo-2,3,4,5-tetrahydrobenzo[b][1,4]oxazepin-3-yl)-1-ethyl-1-m ethyl-1,3-dihydrofuro[3,4-c]pyridine-6-carboxamide], the Ki (human RIP1 kinase domain (2-375), Transcreener ADP assay, 50 uM ATP, 2 hours incubation, read-out: RIP1 Ki) worked out at 270 nM.
As for `CN1C(=O)[C@@H](NC(=O)c2ncc3c(n2)[C@@](C)(C(F)(F)F)OC3)COc2ccccc21` [Example 743, (7S)-7-methyl-N-[(3S)-5-methyl-4-oxo-2,3-dihydro-1,5-benzoxazepin-3-yl]-7-(trifluoromethyl)-5H-furo[3,4-d]pyrimidine-2-carboxamide], the Ki under setting [3] worked out at 17 nM.
Turning to `CN1C(=O)[C@@H](NC(=O)c2nc3n(n2)[C@H](C(F)(F)F)CC3)CCn2nccc21` [Example 344, (5S)—N-[(6S)-4-methyl-5-oxo-7,8-dihydro-6H-pyrazolo[1,5-a][1,3]diazepin-6-yl]-5-(trifluoromethyl)-6,7-dihydro-5H-pyrrolo[1,2-b][1,2,4]triazole-2-carboxamide], the Ki under setting [1] was 226 nM.
